Experimental data reported in patent publication US7723358B2, “Aroyl-O-piperidine derivatives for the treatment of diabetes-related problems” (Merck Patent GmbH, priority 2004, dated 2010).

Target: T1, microsomal triglyceride transfer protein (MTP) (Mesocricetus auratus, UniProt P55158)
T1 construct: The supernatant comprising the soluble MTP is dialysed against Tris/HCl 150 mM; from tissue; host or cells: golden hamster liver microsomes, deoxycholate-solubilised supernatant, dialysed
T1 sequence (P55158 19-895): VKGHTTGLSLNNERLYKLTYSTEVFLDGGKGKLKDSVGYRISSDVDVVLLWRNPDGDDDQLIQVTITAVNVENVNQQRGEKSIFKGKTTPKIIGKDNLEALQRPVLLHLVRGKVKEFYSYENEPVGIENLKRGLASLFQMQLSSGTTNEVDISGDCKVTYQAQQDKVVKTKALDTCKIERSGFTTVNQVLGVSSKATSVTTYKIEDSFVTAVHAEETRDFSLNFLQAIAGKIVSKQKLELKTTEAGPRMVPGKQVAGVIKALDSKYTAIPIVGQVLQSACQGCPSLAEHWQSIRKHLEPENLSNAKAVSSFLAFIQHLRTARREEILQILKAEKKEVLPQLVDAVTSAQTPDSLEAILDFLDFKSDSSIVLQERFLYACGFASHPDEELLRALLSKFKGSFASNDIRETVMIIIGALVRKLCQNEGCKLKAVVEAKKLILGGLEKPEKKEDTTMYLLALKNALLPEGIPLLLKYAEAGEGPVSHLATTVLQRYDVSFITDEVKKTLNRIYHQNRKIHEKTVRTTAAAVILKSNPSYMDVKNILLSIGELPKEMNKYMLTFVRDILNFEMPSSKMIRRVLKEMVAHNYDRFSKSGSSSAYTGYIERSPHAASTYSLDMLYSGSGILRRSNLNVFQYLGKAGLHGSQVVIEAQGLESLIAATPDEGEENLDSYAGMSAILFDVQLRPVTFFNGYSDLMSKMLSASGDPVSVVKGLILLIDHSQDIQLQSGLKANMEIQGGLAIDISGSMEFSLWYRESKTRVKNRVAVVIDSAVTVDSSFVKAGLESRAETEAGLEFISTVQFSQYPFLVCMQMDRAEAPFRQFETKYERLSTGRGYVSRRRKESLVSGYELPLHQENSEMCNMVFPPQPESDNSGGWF
Assay: Inhibition of MTP activity: transfer of [3H]-triolein from donor liposomes to biotinylated LDL, SPA
Format: biochemical
Details: MTP from golden hamster liver; incubation 18-24 hours at 37° C.; read-out: IC50, concentration that allows a 50% inhibition of MTP
Experimental: Analysis of the Inhibition of MTP Activity
The inhibition of the activity of microsomal triglyceride transfer protein (MTP) was tested by using the following operating protocol.
The inhibition of MTP activity with a compound can be quantified by observing the inhibition of the transfer of a labelled triglyceride, from a donor particle to an acceptor particle, in the presence of MTP. The procedure for the preparation of MTP is based on the method by Wetterau and Zilversmit (Biochem. Biophys. Acta (1986) 875, 610). A few grams of golden hamster liver are taken and then rinsed several times in a 250 mM sucrose solution at 0° C. All the following steps proceed at +4° C. A homogenate at a concentration of 50% in 250 mM sucrose is prepared using a Teflon mill and then centrifuged for 10 minutes at 10 000×g at +4° C. The supernatant is then centrifuged at 105 000×g for 75 minutes at +4° C. The supernatant is discarded and the microsomal pellet is taken up in 3 ml (per g of starting liver) of Tris/HCl 150 mM pH 8.0. 1-ml aliquot fractions are stored at −80° C. until the time of use.
After thawing a fraction of microsomes (1 ml), 12 ml of refrigerated Tris/HCl 50 mM, KCl 50 mM, MgCl2 5 mM pH 7.4 buffers and 1.2 ml of deoxycholate (0.54% in water) are added. After incubation for 30 minutes at +4° C. with gentle agitation, the suspension is centrifuged at 105 000×g for 75 minutes. The supernatant comprising the soluble MTP is dialysed against Tris/HCl 150 mM, NaCl 40 mM, EDTA 1 mM, 0.02% sodium azide pH 7.4 buffer (5 times one litre over 2-3 days). The MTP is stored at +4° C., is stable for at least 30 days and is used in unmodified form in the test.
The donor particles (liposomes) are prepared from 208 μl of L-phosphatidylcholine at a concentration of 10 mg/ml in chloroform, and 480 μl of [3H]-triolein at a concentration of 0.5 mCi/ml in toluene. After stirring, the solution is evaporated under nitrogen, taken up in 6 ml of Tris/HCl 50 mM, KCl 50 mM, MgCl2 5 mM pH 7.4 buffer and incubated in an ultrasound bath for 30 minutes at room temperature. The liposomes are stored at +4° C. and sonicated again for 10 minutes before each use.
The acceptor particles are biotinylated low density lipoproteins (LDL-biot). These particles are supplied by the company Amersham.
The reaction mixture is prepared in untreated ½ well white plates (Corning Costar) by addition, in the following order, of: 5 μl of HEPES 50 mM, NaCl 150 mM, BSA 0.1% (w/v), 0.05% sodium azide (w/v), pH 7.4 buffer; 5 μl of liposome; 5 μl of LDL-biot; 5 μl of test products in DMSO; 5 μl of MTP. After incubation for 18-24 hours at 37° C., the reaction is stopped by adding 100 μl of Amersham SPA (Scintillation Proximity Assay) beads coupled to streptavidin, and the radioactivity is counted using a Top Count (Packard) machine at least one hour later. The inhibition of the transfer of the triglycerides with a compound is reflected by a reduction in the transferred radioactivity.
The results are expressed in terms of the IC50, i.e. the concentration that allows a 50% inhibition of MTP.

SMILES	IC50 [nM]
Cc1ccccc1NC(=O)N1CCC(Oc2cccc(NC(=O)c3cccc(C)c3-c3ccc(OC(F)(F)F)cc3)c2)CC1 [Example 62, N-(2-methylphenyl)-4-[3-[[[6-methyl-4′-(trifluoromethoxy)[1,1′-biphenyl]-2-yl]-carbonyl]amino]phenoxy]-1-piperidine-carboxamide]	119
Cc1cccc(C(=O)Nc2cccc(OC3CCN(Cc4ccncc4)CC3)c2)c1-c1ccc(OC(F)(F)F)cc1 [Example 66, 6-methyl-N-[3-[[1-(4-pyridinylmethyl)-4-piperidinyl]oxy]phenyl]-4′-(trifluorometh-oxy)[1,1′-biphenyl]-2-carboxamide]	189
CC(C)(C)OC(=O)N1CCC(Oc2cccc(NC(=O)c3ccccc3-c3ccc(OC(F)(F)F)cc3)c2)CC1 [Example 67, 1,1-dimethylethyl 4-[3-[[[4′-(trifluorometh-oxy)[1,1′-biphenyl]-2-yl]carbonyl]amino]-phenoxy]-1-piperidinecarboxylate]	234
CCOC(=O)N1CCC(Oc2cccc(NC(=O)c3ccccc3-c3ccc(C(F)(F)F)cc3)c2)CC1 [Example 77, ethyl 4-[3-[[[4′-(trifluoromethyl)[1,1′-biphenyl]-2-yl]carbonyl]amino]phenoxy]-1-piperidinecarboxylate]	82.5
Cc1cccc(C(=O)Nc2cccc(OC3CCN(CC4CCOC4)CC3)c2)c1-c1ccc(OC(F)(F)F)cc1 (stereo not shown) [Example 78, 6-methyl-N-[3-[[1-[(tetrahydro-3-furanyl)-methyl]-4-piperidinyl]oxy]phenyl]-4′-(tri-fluoromethoxy)[1,1′-biphenyl]-2-carbox-amide]	447
Cc1cccc(C(=O)Nc2cccc(OC3CCN(Cc4cccnc4)CC3)c2)c1-c1ccc(OC(F)(F)F)cc1 [Example 81, 6-methyl-N-[3-[[1-(3-pyridinylmethyl)-4-piperidinyl]oxy]phenyl]-4′-(trifluorometh-oxy)[1,1′-biphenyl]-2-carboxamide]	315
Cc1cccc(CN2CCC(Oc3cccc(NC(=O)c4cccc(C)c4-c4ccc(OC(F)(F)F)cc4)c3)CC2)n1 [Example 83, 6-methyl-N-[3-[[1-[(6-methyl-2-pyridinyl)-methyl]-4-piperidinyl]oxy]phenyl]-4′-(trifluoromethoxy)[1,1′-biphenyl]-2-carboxamide]	633
Cc1cccc(C(=O)Nc2cccc(OC3CCN(Cc4ccc(N(C)C)cc4)CC3)c2)c1-c1ccc(OC(F)(F)F)cc1 [Example 84, N-[3-[[1-[[4-(dimethylamino)phenyl]-methyl]-4-piperidinyl]oxy]phenyl]-6-methyl-4′-(trifluoromethoxy)[1,1′-biphenyl]-2-carboxamide]	382
Cc1ccc(CN2CCC(Oc3cccc(NC(=O)c4cccc(C)c4-c4ccc(OC(F)(F)F)cc4)c3)CC2)cc1 [Example 85, 6-methyl-N-[3-[[1-[(4-methylphenyl)-methyl]-4-piperidinyl]oxy]phenyl]-4′-(trifluoromethoxy)[1,1′-biphenyl]-2-carboxamide]	392
COCCOc1ccc(-c2ccccc2C(=O)Nc2cccc(OC3CCN(C(=O)OC(C)(C)C)CC3)c2)cc1 [Example 90, 1,1-dimethylethyl 4-[3-[[[4′-(2-methoxy-ethoxy)[1,1-biphenyl]-2-yl]carbonyl]-amino]phenoxy]-1-piperidinecarboxylate]	392
CCOC(=O)CCC(=O)N1CCC(Oc2cccc(NC(=O)c3cccc(C)c3-c3ccc(OC(F)(F)F)cc3)c2)CC1 [Example 96, ethyl 4-[3-[[[6-methyl-4′-(trifluoromethoxy)-[1,1′-biphenyl]-2-yl]carbonyl]amino]-phenoxy]-γ-oxo-1-piperidinebutanoate]	128
Cc1cccc(C(=O)Nc2cccc(OC3CCN(C(=O)c4cccs4)CC3)c2)c1-c1ccc(OC(F)(F)F)cc1 [Example 99, 6-methyl-N-[3-[[1-(2-thienylcarbonyl)-4-piperidinyl]oxy]phenyl]-4′-(trifluorometh-oxy)[1,1′-biphenyl]-2-carboxamide]	416
COc1ccc(C(=O)N2CCC(Oc3cccc(NC(=O)c4ccccc4-c4ccc(OC(F)(F)F)cc4)c3)CC2)cc1OC [Example 104]	294
